This note sets out measurements from US20260098037A1, “COMPOUND CONTAINING MULTI-FUSED RING STRUCTURE” (Chia Tai Tianqing Pharmaceutical Group Co., Ltd., priority 2023, published 2026).

One series addresses GLP1R (Homo sapiens, UniProt P43220). The series can be described thus: In vitro cellular cAMP expression activity assay (CRE-luciferase reporter). It counts as cell-based. The conditions noted are these: HEK293/CRE-Luc/GLP1R cells, 6 h incubation, luciferase luminescence; read-out: HEK293/CRE-Luc/GLP-1R EC50. Here is the method: HEK293/CRE-Luc/GLP1R cells (manufacturer: GenScript Biotech Corporation) in a good growth state were taken, washed with PBS, and digested with pancreatin. The digestion was terminated with a complete medium. The cells were collected into a centrifuge tube, adjusted to a cell density of 4×10^5 cells/mL using a DMEM+2% FBS medium, seeded in a 96-well plate (100 μL/well), and incubated at 37° C. for 1 h. After 1 h, the compounds were added using a nanoliter pipettor such that the final concentrations of the compounds were 10 nM-0.0006 nM. The compounds were added in duplicate, and a control was set. After the cells were incubated in a cell incubator for another 6 h, a detection reagent Luciferase (manufacturer: Vazyme Biotech, 50 μL/well) was added. The plate was left to stand at room temperature for 3 min to fully lyse the cells, and the luminescence was detected on a PerkinElmer Envision microplate reader. A dose-response curve was fitted by four-parameter analysis, and the EC50 was calculated.
For orientation: Reporter assays use an easily measured gene product as a stand-in for the process of interest.

Series [1] is described as follows: In vitro stability assay in liver microsome (HLM). It counts as in vitro ADME, human. The conditions noted are these: liver microsome 0.5 mg/mL, NADPH+MgCl2, PBS pH 7.4, 1 h. The procedure:
(§1) Liver microsome incubation samples were prepared by mixing a PBS buffer (pH 7.4), a liver microsome solution (0.5 mg/mL), a test compound, and an NADPH+MgCl2 solution, and incubated at […] and 300 rpm for 1 h. Zero-hour samples were prepared by mixing a PBS buffer (pH 7.4), a liver microsome solution (0.5 mg/mL), and a test compound. An acetonitrile solution containing an internal standard was added to the samples, and supernatants were prepared by protein precipitation, diluted, and then assayed by LC/MS/MS.

The nature of series [2]: In vitro stability assay in liver microsome (MLM). It counts as in vitro ADME, mouse. The conditions noted are these: liver microsome 0.5 mg/mL, NADPH+MgCl2, PBS pH 7.4, 1 h. The procedure:
as §1
(In general: Liver microsomes are vesicles of endoplasmic reticulum, rich in cytochrome P450 enzymes.)

GLP1R, sequence (P43220 24-463): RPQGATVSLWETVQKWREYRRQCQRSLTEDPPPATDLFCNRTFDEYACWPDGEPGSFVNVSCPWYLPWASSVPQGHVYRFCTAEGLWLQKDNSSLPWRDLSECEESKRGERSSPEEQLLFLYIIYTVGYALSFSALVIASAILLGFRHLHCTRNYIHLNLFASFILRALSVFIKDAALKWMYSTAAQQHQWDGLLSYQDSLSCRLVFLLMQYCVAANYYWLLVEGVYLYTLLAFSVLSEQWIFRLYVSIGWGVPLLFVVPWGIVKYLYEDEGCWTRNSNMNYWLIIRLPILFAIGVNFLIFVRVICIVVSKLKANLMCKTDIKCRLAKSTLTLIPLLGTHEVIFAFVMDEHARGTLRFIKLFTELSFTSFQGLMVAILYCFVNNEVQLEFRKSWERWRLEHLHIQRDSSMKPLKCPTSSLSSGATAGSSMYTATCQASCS

Regarding `C[C@H]1c2c(nn(-c3ccc(F)c(C4CC4)c3)c2-n2ccn(-c3ccc4c(c3)C3(CC3)C(=O)N4C)c2=O)CCN1C(=O)c1cc2cc(C3CCOC(C)(C)C3)ccc2n1[C@@]1(c2nc(=O)o[nH]2)C[C@@H]1C` (single isomer, unassigned) [Compound 6], the EC50 on GLP1R is less than 0.5 nM.
For `C[C@H]1c2c(nn(-c3ccc(F)c(C4CC4)c3)c2-n2ccn(-c3ccc4c(c3)N(C)C(=O)C43CC3)c2=O)CCN1C(=O)c1cc2cc(C3CCOC(C)(C)C3)ccc2n1C1(c2noc(=O)[nH]2)CC1` (single isomer, unassigned) [Compound 20], the EC50 at GLP1R is less than 0.5 nM. For the same compound, the “HLM Remaining (T = 60 min)” value in series [1] was 95.39%. In addition, the “MLM Remaining (T = 60 min)” value in series [2] is reported as 77.59%.
For the compound `Cc1cc(-n2nc3c(c2-n2ccn(-c4ccc5c(c4)C4(CCC4)C(=O)N5C)c2=O)[C@H](C)N(C(=O)c2cc4cc(C5CCOC(C)(C)C5)ccc4n2[C@@]2(c4nc(=O)o[nH]4)C[C@@H]2C)CC3)cc(C)c1F` (single isomer, unassigned) [Compound 21], the EC50 at GLP1R was less than 0.5 nM.
For the compound `Cc1cc(-n2nc3c(c2-n2ccn(-c4ccc5c(c4)C4(CC4)C(=O)N5C)c2=O)C(C)N(C(=O)c2cc4cc(C5CCOC(C)(C)C5)ccn4c2C2(c4noc(=O)[nH]4)CC2C)CC3)cc(C)c1F` (single isomer, unassigned) [Compound 22-A], the EC50 on GLP1R is less than 0.5 nM.
Consider `Cc1cc(-n2nc3c(c2-n2ccn(-c4ccc5c(c4)C4(CC4)C(=O)N5C)c2=O)[C@H](C)N(C(=O)c2cc4cc([C@H]5CCOC(C)(C)C5)ccc4n2[C@@]2(c4noc(=O)[nH]4)C[C@@H]2C)CC3)cc(C)c1F` [Compound 1-A], for which, on GLP1R, the EC50 was less than 0.5 nM.
Regarding `Cc1cc(-n2nc3c(c2-n2ccn(-c4ccc5c(c4)C4(CC4)C(=O)N5C)c2=O)[C@H](C)N(C(=O)c2cc4cc([C@H]5CCOC(C)(C)C5)ccc4n2C2(c4noc(=O)[nH]4)CC2)CC3)cc(C)c1F` [Compound 4], the EC50 on GLP1R was less than 0.5 nM. The “HLM Remaining (T = 60 min)” value in series [1] stood at 91.85%. Further, in series [2], the “MLM Remaining (T = 60 min)” value turned out to be 95.46%.
As for `Cc1cc(-n2nc3c(c2-n2ccn(-c4ccc5nc6n(c5c4)CCN(C)C6)c2=O)[C@H](C)N(C(=O)c2cc4cc([C@H]5CCOC(C)(C)C5)ccc4n2[C@@]2(c4noc(=O)[nH]4)C[C@@H]2C)CC3)cc(C)c1F` [Compound 7], the EC50 at GLP1R was less than 0.5 nM.
Same read-out and setting: for `Cc1cc(-n2nc3c(c2-n2ccn(-c4ccc5nc6n(c5c4)CCC6)c2=O)[C@H](C)N(C(=O)c2cc4cc([C@H]5CCOC(C)(C)C5)ccc4n2[C@@]2(c4noc(=O)[nH]4)C[C@@H]2C)CC3)cc(C)c1F` [Compound 8] the value was less than 0.5 nM.
Still for that read-out and setting: for `Cc1cc(-n2nc3c(c2-n2ccn(-c4ccc5c(c4)C(=O)C4(CC4)C5)c2=O)[C@H](C)N(C(=O)c2cc4cc([C@H]5CCOC(C)(C)C5)ccc4n2[C@@]2(c4noc(=O)[nH]4)C[C@@H]2C)CC3)cc(C)c1F` [Compound 9-A] the value was less than 0.5 nM; for `COCC#Cc1ccc(-n2ccn(-c3c4c(nn3-c3cc(C)c(F)c(C)c3)CCN(C(=O)c3cc5cc([C@H]6CCOC(C)(C)C6)ccc5n3[C@@]3(c5noc(=O)[nH]5)C[C@@H]3C)[C@H]4C)c2=O)c(F)c1` [Compound 10-A], less than 0.5 nM; for `Cc1cc(-n2nc3c(c2-n2ccn(-c4ccc5c(c4)CC4(COC4)C5)c2=O)[C@H](C)N(C(=O)c2cc4cc([C@H]5CCOC(C)(C)C5)ccc4n2[C@@]2(c4noc(=O)[nH]4)C[C@@H]2C)CC3)cc(C)c1F` [Compound 12-A], less than 0.5 nM.
For `[2H]C([2H])([2H])N1C(=O)C2(CC2)c2ccc(-n3ccn(-c4c5c(nn4-c4cc(C)c(F)c(C)c4)CCN(C(=O)c4cc6cc([C@H]7CCOC(C)(C)C7)ccc6n4[C@@]4(c6noc(=O)[nH]6)C[C@@H]4C)[C@H]5C)c3=O)cc21` [Compound 13], at GLP1R, the EC50 was less than 0.5 nM. The “HLM Remaining (T = 60 min)” value in series [1] was found to be 84.57%. Moreover, the “MLM Remaining (T = 60 min)” value in series [2] is 84.44%.
For the compound `Cc1cc(-n2nc3c(c2-n2ccn(-c4cc(F)c5c(c4)N(C)C(=O)C54CC4)c2=O)[C@H](C)N(C(=O)c2cc4cc([C@H]5CCOC(C)(C)C5)ccc4n2[C@@]2(c4noc(=O)[nH]4)C[C@@H]2C)CC3)cc(C)c1F` [Compound 16], the EC50 at GLP1R is less than 0.5 nM.
The same measure, in the same setting: for `Cc1cc(-n2nc3c(c2-n2ccn(-c4ccc5c(c4)N(C4CC4)C(=O)C54CC4)c2=O)[C@H](C)N(C(=O)c2cc4cc([C@H]5CCOC(C)(C)C5)ccc4n2[C@@]2(c4noc(=O)[nH]4)C[C@@H]2C)CC3)cc(C)c1F` [Compound 17] the value was less than 0.5 nM.
Take `Cc1cc(-n2nc3c(c2-n2ccn(-c4ccc5c(c4)N(C)C(=O)C54CC4)c2=O)[C@H](C)N(C(=O)c2cc4cc([C@H]5CCOC(C)(C)C5)ccc4n2C2(c4noc(=O)[nH]4)CC2)CC3)cc(C)c1F` [Compound 19]: the EC50 on GLP1R is less than 0.5 nM. The “HLM Remaining (T = 60 min)” value in series [1] turned out to be 92.40%. Moreover, in series [2], the “MLM Remaining (T = 60 min)” value amounted to 77.17%.
For the compound `C[C@H]1c2c(nn(-c3ccc(F)c(C4CC4)c3)c2-n2ccn(-c3ccc4c(c3)C3(CC3)C(=O)N4C)c2=O)CCN1C(=O)c1cc2cc([C@H]3CCOC(C)(C)C3)ccn2c1[C@@]1(c2noc(=O)[nH]2)C[C@@H]1C` [Compound 24], at GLP1R, the EC50 was less than 0.5 nM.
Still for that read-out and setting: for `C[C@H]1c2c(nn(-c3ccc(F)c(C4CC4)c3)c2-n2ccn(-c3ccc4c(c3)CC3(CC3)C4=O)c2=O)CCN1C(=O)c1cc2cc([C@H]3CCOC(C)(C)C3)ccc2n1[C@@]1(c2noc(=O)[nH]2)C[C@@H]1C` [Compound 26] the value was less than 0.5 nM.
